Source: patent publication US11312722B2, “Hsp90 inhibitors and uses thereof” (TRUSTEES OF BOSTON UNIVERSITY, priority 2019, dated 2022)
pKd: −log10 of the molar value. Converted amounts (≈) assume the structure as drawn. Like-named read-outs stand apart in the source and are kept apart here.

Legend:
C. neoformans Hsp90 NBD [1] = target: T1, C. neoformans Hsp90 NBD (Cryptococcus neoformans, UniProt J9VVA4); experiment: Protein thermal shift assay, C. neoformans Hsp90 NBD; type: binding; settings: equimolar protein and ligand (10 μM)
Procedure: […]. Using recombinant proteins, assay-independent nanomolar inhibitory constants (Ki) were defined for these compounds. Binding of the compounds to their relevant NBD by thermal shift denaturation assays was also confirmed. Thermal shift assays were performed under saturating ligand conditions, i.e. equimolar concentrations (10 μM) of protein and ligand. As a result, they can provide only qualitative evidence of target binding, but not a quantitative measurement of ligand affinity. […] […]. C. neoformans or C. albicans Hsp90 NBD was combined with equimolar concentrations of the indicated bioactive inhibitors (10 μM) or DMSO control, in technical triplicates. The protein was heated from 25 to 98.6° C. at 0.2° C./5 s in the presence of Sypro Orange dye. All compounds induce an increase in melting temperature relative to the DMSO control, reported as ΔTm.
Protein thermal shift assays. Thermal melting curves were determined using a Protein Thermal Shift Kit (ThermoFisher #4462263), employing a CFX384 Real-Time PCR System (Bio-Rad, C1000 Touch Thermal Cycler). Reactions were performed in a final volume of 10 μL, and contained purified C. albicans or C. neoformans Hsp90 NBD diluted to 250 μg/mL in Buffer HBS-P (GE Healthcare Life Sciences, 0.01 M HEPES pH 7.4, 0.15 M NaCl, 0.005% v/v Surfactant P20) with 10 μM synthetic analog or DMSO control, and 1× Sypro Orange dye solution. Samples were prepared in triplicate in 384-well white plates (Bio-Rad; HSP3805). The instrument was set to melt curve, step 1 (25° C., 2 min) and step 2 (ramp to 98.6° C., increasing 0.2° C. per 5 s cycle). The inflection point of each curve is defined as the protein melting temperature (Tm). Temperature shift, ΔTm, was recorded as the difference between the Tm of the fungal Hsp90 NBD with compound minus Tm of the protein without compound.

[2] = system: C. neoformans (Strain H99); experiment: Antifungal sensitivity testing (MIC), C. neoformans H99; type: cell-based
Procedure: Color scale bar: no growth inhibition (green) to complete inhibition (black). Each shaded box represents the mean of technical duplicates. The experiment was repeated as an independent biological replicate to confirm results.
Minimum inhibitory concentration (MIC) value for compounds against C. neoformans (Strain H99) was determined in dose-response format, in technical duplicate. Experiments were conducted in RPMI medium at 37° C. for 48 h. Relative viable cell number was measured by standard dye reduction (resazurin) assay.
Yeast strains and culture conditions. Strains used in this study were C. albicans CaCi2 (clinical isolate 2), [58] SC5314, [59] and C. neoformans H99. […] Active cultures were maintained on solid (2% agar) yeast extract peptone (YPD, 1% yeast extract, 2% bactopeptone, 2% glucose) at 4° C. for no more than one month.
Antifungal sensitivity testing. […] Each compound was tested in duplicate in at least two independent experiments. […] Plates were photographed after 24 h of incubation at 30° C.

in vitro = settings: both, CD-1, mouse; for CLint scaled at 1 μM: liver microsomes; for half-life: microsomes
[3] = mouse liver microsomes; for % remaining at 15 min (NADPH-free): NADPH-free control; for % remaining at 15 min / % remaining at 60 min: with NADPH
[4] = target: Hsp90 (C. albicans whole cell lysate) (Candida albicans (strain SC5314 / ATCC MYA-2876) (Yeast), UniProt P46598); experiment: biochemical; type: binding; settings: Yes/No call
Procedure: (§1) All analogs were assessed for Hsp90 binding affinity using a fluorescence polarization (FP)-based equilibrium competition assay in fungal and human whole cell lysates. […] Using lysates, the relative potency and selectivity for fungal Hsp90 was measured versus the entire ensemble of human Hsp90 isoforms in microplate format using small amounts of test materials. […] Thermal shift assays were performed under saturating ligand conditions, i.e. equimolar concentrations (10 μM) of protein and ligand. As a result, they provided qualitative evidence of target binding, but not a quantitative measurement of ligand affinity. For quantitation, a ligand dissociation constant (Ki) for key compounds was also determined using purified NBDs in FP assays and KD measurements were made by surface plasmon resonance (SPR) using a Biacore instrument. Finally, all analogs were assessed for whole cell antifungal activity against the pathogens C. albicans and C. neoformans.
(§2) FP assays. Whole cell lysates were prepared for FP assays as described previously. Total protein concentration of human and yeast lysates was determined by Bradford assay. […] Serial dilutions of test Hsp90 inhibitors were then assayed under these same conditions to monitor loss of fluorescence polarization as an indicator of probe displacement from Hsp90. […] Titrations of test compound in 25 μL of binding buffer (supplemented with 0.1 mg/mL bovine gamma globulin), were mixed with an equal volume of freshly prepared whole-cell lysate spiked with Cy3-GdA (0.1 nM). Plates were incubated at room temperature for 4.5 h to achieve equilibrium binding for the geldanamycin-based probe. […] Non-linear 4-parameter curve fitting of raw displacement data was performed in GraphPad Prism 5.0 to determine EC50 values as a measure of relative Hsp90-binding affinity. Results were normalized to the value determined for GdA in lysate of each cell type.
(§3) Statistical methods. […] In calculating the error of selectivity determinations, the fractional error of measurements in each species was summed to yield a composite error for the derived ratio.

C. neoformans Hsp90 NBD [5] = target: T1, C. neoformans Hsp90 NBD; experiment: biochemical; type: binding; settings: SPR, 25° C., read-out: Biacore KD
Procedure: SPR assays. For SPR experiments, Hsp90 NBD expression constructs were modified to encode a C-terminal AviTag™ for site-specific on-column biotinylation with a BirA biotin-ligase kit (Avidity LLC; BirA-500). SPR experiments were performed on a Biacore T200 instrument at 25° C. Biotinylated Hsp90 NBD was diluted to 40 μg/mL and immobilized on a streptavidin chip (Sensor Chip SA, GE Healthcare) at a density of 2000-2500 response units (RU) on the biosensor surface. […] Resulting sensorgrams were analyzed with a fit to a 1:1 binding model, using BIA evaluation software.

[6] = target: Hsp90 (C. neoformans whole cell lysate) (Cryptococcus neoformans, UniProt J9VVA4); type: binding; settings: Yes/No call
Procedure: as §1, §2, §3

[7] = Cryptococcus neoformans; read-out: C. neo MIC80
[8] = Cryptococcus neoformans; read-out: C. neo MIC90
[9] = Cryptococcus neoformans, read-out: C. neo MIC80
[10] = Cryptococcus neoformans, read-out: C. neo MIC90

T1 sequence (J9VVA4 1-699): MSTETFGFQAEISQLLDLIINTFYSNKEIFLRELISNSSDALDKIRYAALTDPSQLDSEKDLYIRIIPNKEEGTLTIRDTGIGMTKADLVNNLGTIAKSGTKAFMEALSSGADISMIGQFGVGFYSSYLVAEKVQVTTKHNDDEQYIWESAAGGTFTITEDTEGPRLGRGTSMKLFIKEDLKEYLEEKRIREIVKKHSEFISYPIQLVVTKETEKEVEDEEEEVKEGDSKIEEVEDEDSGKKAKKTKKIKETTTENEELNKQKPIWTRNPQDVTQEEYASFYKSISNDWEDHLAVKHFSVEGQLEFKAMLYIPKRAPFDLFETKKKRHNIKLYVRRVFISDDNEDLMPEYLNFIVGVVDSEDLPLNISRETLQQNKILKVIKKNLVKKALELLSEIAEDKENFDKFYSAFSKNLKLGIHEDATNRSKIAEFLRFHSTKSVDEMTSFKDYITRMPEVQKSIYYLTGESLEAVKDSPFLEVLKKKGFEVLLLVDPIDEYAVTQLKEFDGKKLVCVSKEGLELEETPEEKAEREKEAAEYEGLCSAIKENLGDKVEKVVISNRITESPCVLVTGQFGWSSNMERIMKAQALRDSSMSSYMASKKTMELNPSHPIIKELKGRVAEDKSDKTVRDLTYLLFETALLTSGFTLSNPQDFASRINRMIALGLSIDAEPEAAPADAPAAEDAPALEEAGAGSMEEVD
Chain of Hsp90 (C. neoformans whole cell lysate) (J9VVA4 1-699): as above

| Structure (SMILES) | C. neoformans NBD ΔTm (C. neoformans Hsp90 NBD [1]) | MIC80 [2, 7] | MIC90 [2, 8] | CLint scaled at 1 μM (in vitro) | half-life (in vitro) | % remaining at 15 min (NADPH-free) [3] | % remaining at 15 min [3] | % remaining at 60 min [3] | C. alb Active (biochemical) [4] | other results |
| --- | --- | --- | --- | --- | --- | --- | --- | --- | --- | --- |
| COc1ccc(Cn2nc(-c3ccccc3)cc2Nc2cc(O)cc(O)c2C(=O)N2Cc3cccc(F)c3C2)cc1 [Compound 27, 4-(4-Fluoro-2,3-dihydro-1H-isoindole-2-carbonyl)-5-((1-((4-methoxyphenyl)methyl)-3-phenyl-1H-pyrazol-5-yl)amino)benzene-1,3-diol] | 12 °C | – | – | – | – | – | – | – | – | – |
| COc1ccc(Cn2nc(-c3ccccc3)cc2Nc2cc(O)cc(O)c2C(=O)N2Cc3ccc(F)cc3C2)cc1 [Compound 29, 4-(5-Fluoro-2,3-dihydro-1H-isoindole-2-carbonyl)-5-((1-((4-methoxyphenyl)methyl)-3-phenyl-1H-pyrazol-5-yl)amino)benzene-1,3-diol] | 14 °C | – | – | – | – | – | – | – | – | – |
| COc1ccc(Cn2nc(C(C)(C)C)cc2Nc2cc(O)cc(O)c2C(=O)N2Cc3ccccc3C2)cc1 [Compound 49, (2-((3-(tert-Butyl)-1-(4-methoxybenzyl)-1H-pyrazol-5-yl)amino)-4,6-dihydroxyphenyl)(isoindolin-2-yl)methanone] | 14 °C | – | – | – | – | – | – | – | – | – |
| CC(C)c1ccc(Cn2nccc2Nc2cc(O)cc(O)c2C(=O)N2Cc3ccccc3C2)cc1 [Compound 83, (2,4-Dihydroxy-6-((1-(4-isopropylbenzyl)-1H-pyrazol-5-yl)amino)phenyl)(isoindolin-2-yl)methanone] | – | > 25 µM | > 25 µM | 1770 mL/min/kg | 3.1 min | 109.1% | 3.4% | 1.8% | Yes | – |
| Cn1nc(-c2ccccc2)cc1Nc1cc(O)cc(O)c1C(=O)N1Cc2ccccc2C1 [Compound 91, 4-(2,3-Dihydro-1H-isoindole-2-carbonyl)-5-((1-methyl-3-phenyl-1H-pyrazol-5-yl)amino]benzene-1,3-diol] | 11 °C | > 25 µM | > 25 µM | – | – | – | – | – | Yes | – |
| CC(C)c1cc(Nc2cc(O)cc(O)c2C(=O)N2Cc3ccccc3C2)n(C)n1 [Compound 100, 4-(2,3-Dihydro-1H-isoindole-2-carbonyl)-5-((1-methyl-3-(propan-2-yl)-1H-pyrazol-5-yl)amino)benzene-1,3-diol] | 11 °C | – | – | – | – | – | – | – | – | – |
| Cc1ccccc1-c1cc(Nc2cc(O)cc(O)c2C(=O)N2Cc3ccccc3C2)n(C)n1 [Compound 106, 4-(2,3-Dihydro-1H-isoindole-2-carbonyl)-5-((1-methyl-3-(2-methylphenyl)-1H-pyrazol-5-yl)amino)benzene-1,3-diol] | 12 °C | < 25 µM | 25 µM (≈ 11 µg/mL) | – | – | – | – | – | Yes | MIC ([2]; Cryptococcus neoformans; C. neoformans H99, RPMI medium, 37° C., 48 h, resazurin): < 10 µM |
| Cc1cccc(-c2cc(Nc3cc(O)cc(O)c3C(=O)N3Cc4cn[nH]c4C3)n(C)n2)c1 [Compound 111, 5-((1-Methyl-3-(3-methylphenyl)-1H-pyrazol-5-yl)amino)-4-(1H,4H,5H,6H-pyrrolo[3,4-c]pyrazole-5-carbonyl)benzene-1,3-diol] | – | > 25 µM | > 25 µM | 582 mL/min/kg | 9.4 min | 115.3% | 20.2% | 1.8% | Yes | – |
| COc1cccc(-c2cc(Nc3cc(O)cc(O)c3C(=O)N3Cc4ccccc4C3)n(C)n2)c1 [Compound 112, 4-(2,3-Dihydro-1H-isoindole-2-carbonyl)-5-((3-(3-methoxyphenyl)-1-methyl-1H-pyrazol-5-yl)amino)benzene-1,3-diol] | – | – | – | 1740 mL/min/kg | 3.2 min | 99.3% | 3.7% | 0% | Yes | MIC80 [2, 9]: > 25 µM; MIC90 [2, 10]: > 25 µM; pKd (C. neoformans Hsp90 NBD [5]): 7.13 |
| Cn1nc(-c2ccc(C(C)(C)C)cc2)cc1Nc1cc(O)cc(O)c1C(=O)N1Cc2ccccc2C1 [Compound 127, 5-((3-(4-tert-Butylphenyl)-1-methyl-1H-pyrazol-5-yl)amino)-4-(2,3-dihydro-1H-isoindole-2-carbonyl)benzene-1,3-diol] | 0 °C | – | – | – | – | – | – | – | – | – |
| Cn1nc(-c2ccc(C(C)(C)C)cc2)cc1Nc1cc(O)cc(O)c1C(=O)N1Cc2cn[nH]c2C1 [Compound 129, 5-((3-(4-tert-Butylphenyl)-1-methyl-1H-pyrazol-5-yl)amino)-4-(1H,4H,5H,6H-pyrrolo[3,4-c]pyrazole-5-carbonyl)benzene-1,3-diol] | – | > 25 µM | > 25 µM | 847 mL/min/kg | 6.4 min | 97.9% | 21.1% | 0.5% | – | C. neo Active (biochemical) [6]: Yes; C. neo Active (cells) ([2]; Yes/No call): No |
| Cn1nc(-c2ccc(OC(F)(F)F)cc2)cc1Nc1cc(O)cc(O)c1C(=O)N1Cc2cccnc2C1 [Compound 131, 5-((1-Methyl-3-(4-(trifluoromethoxy)phenyl)-1H-pyrazol-5-yl)amino)-4-(5H,6H,7H-pyrrolo[3,4-b]pyridine-6-carbonyl)benzene-1,3-diol] | – | – | – | 387 mL/min/kg | – | 104.1% | 35.5% | 3.9% | – | MIC80 [2, 9]: > 25 µM; MIC90 [2, 10]: > 25 µM; C. neo Active (cells) ([2]; Yes/No call): No; pKd (C. neoformans Hsp90 NBD [5]): 6.42 |
| Cn1nc(-c2ccc(OC(F)(F)F)cc2)cc1Nc1cc(O)cc(O)c1C(=O)N1Cc2cn[nH]c2C1 [Compound 132, 5-((1-Methyl-3-(4-(trifluoromethoxy)phenyl)-1H-pyrazol-5-yl)amino)-4-(1H,4H,5H,6H-pyrrolo[3,4-c]pyrazole-5-carbonyl)benzene-1,3-diol] | – | – | – | 176 mL/min/kg | – | 71.7% | 63.0% | 20.6% | – | MIC80 [2, 9]: > 25 µM; MIC90 [2, 10]: > 25 µM; C. neo Active (cells) ([2]; Yes/No call): No; pKd (C. neoformans Hsp90 NBD [5]): 6.67 |
